PMC5834442, “Identifying inhibitors of the Leishmania inositol phosphorylceramide synthase with antiprotozoal activity using a yeast-based assay and ultra-high throughput screening platform” (Scientific Reports, 2018)
Like-named read-outs stand apart in the source and are kept apart here.

Tests used:
[1] = system: L. donovani (MHOM/SD/62/1S-CL2D, LdBOB) axenic amastigotes; assay: Leishmania donovani axenic amastigote dose response assay (resazurin); format: cell-based; settings: -logIC50 mol against L. donovani (LdBOB) axenic amastigotes, read-out: pIC50 Axenic (converted)
[2] = system: HepG2 cells; assay: Mammalian cell cytotoxicity assay (CellTiter-Glo); format: cell-based, human; settings: for IC50: Homo sapiens, -logIC50 mol against HepG2, read-out: PIC50 HepG2 (converted)
[3] = system: intra-macrophage Leishmania donovani amastigotes; assay: Intramacrophage Leishmania donovani assay (high content imaging); format: cell-based; settings: Leishmania donovani
[4] = system: THP-1 macrophages; assay: Host cell toxicity in the intramacrophage assay; format: cell-based, human; settings: for IC50: Homo sapiens, THP-1 host cells in intramacrophage assay, read-out: pIC50 THP-1 (converted)
[5] = intramacrophage L. donovani, read-out: pIC50 InMac (converted)
[6] = selectivity: pIC50 InMac minus pIC50 THP-1
[7] = selectivity, pIC50 axenic minus pIC50 HepG2
[8] = intramacrophage L. donovani amastigotes, read-out: pIC50 InMac (converted)
[9] = selectivity, pIC50 InMac minus pIC50 THP-1
[10] = selectivity: pIC50 axenic minus pIC50 HepG2
[11] = −logIC50 M, L. donovani infected THP-1 macrophages, 96 hours, read-out: pIC50 against intra-macrophage L. donovani amastigotes (converted)

| SMILES | IC50 [1] [µM] | pSI v HepG2 [2] | IC50 [2] [µM] | IC50 [3, 5] [µM] | IC50 [4] [µM] | pSI v THP-1 [4, 6] | pSI v HepG2 [2, 7] | IC50 [3, 8] [µM] | pSI v THP-1 [4, 9] | pSI v HepG2 [2, 10] | IC50 [3, 11] [µM] |
| --- | --- | --- | --- | --- | --- | --- | --- | --- | --- | --- | --- |
| N#Cc1ccc(N2CCCC[C@H]2c2cccnc2)c([N+](=O)[O-])c1.O=C(O)C(F)(F)F.O=C(O)C(F)(F)F [MA102475-064A1B46] | 5.01 | 1.28 | 95.5 | 2.04 | > 50.1 | 1.39 | – | – | – | – | – |
| CC(C)CCN1C(=O)C(N)C(=O)N(CC2CCCCC2)c2ccccc21 (stereo not drawn) [VMTA/1987/36/2] | 2 | – | 81.3 | – | > 50.1 | – | 1.61 | 8.13 | 0.79 | – | – |
| COC1(C)CCC(=Cc2ccc(Cl)cc2)CC1(O)Cn1ccnc1 (stereo not drawn) [ST/1099846] | 2.95 | – | 72.4 | – | > 50.1 | – | – | – | – | 1.39 | – |
| O=C(NC1CCN(Cc2ccc(Cl)s2)CC1)N1CCc2cc(Cl)ccc21 [ST/1291407] | 2.88 | – | 67.6 | 2.09 | 6.03 | 0.46 | – | – | – | 1.37 | – |
| COc1cccc(-c2csc(NC(=O)c3cccc(Cl)c3)c2C(=O)O)c1 [ST/266497] | 7.08 | – | > 100 | 45.7 | > 50.1 | 0.04 | – | – | – | 1.15 | – |
| CC(=O)N1N=C(COc2ccc(Cl)cc2C)OC1c1cccs1 (stereo not drawn) [ST/1455408] | 7.76 | – | 97.7 | > 50.1 | > 50.1 | 0.00 | – | – | – | 1.10 | – |
| CNC(=O)c1ccsc1NC(=O)c1ccc([N+](=O)[O-])s1 [compound 4] | – | – | – | – | – | – | – | – | – | – | 1.26 |
| N#Cc1ccc(C=C(C(=O)Nc2ccccc2Cl)C(=O)Nc2ccccc2Cl)cc1 [ST/786454] | 0.0741 | – | 3.63 | – | – | – | – | – | – | 1.69 | – |
| Cc1ccnc(-c2nn[nH]c2Br)c1 [LK45855-125A1] | 1.74 | – | > 100 | 33.1 | 32.4 | -0.01 | – | – | – | 1.76 | – |
| Cc1ccc(NC(=O)Nc2ccc(Cl)c([N+](=O)[O-])c2)cc1 [ST/875327] | 9.55 | – | 22.9 | – | – | – | 0.38 | – | – | – | – |
| O=C(Nc1cc(C(F)(F)F)ccc1Cl)c1ccccc1O [SC/67526] | 5.25 | – | 15.1 | – | – | – | – | – | – | 0.46 | – |
| O=C(O)C(F)(F)F.O=c1[nH]ccc2nc(NCCc3c[nH]cn3)nc(Nc3cccc(S(=O)(=O)N4CCOCC4)c3)c12 [N4347-22-1] | 10 | 1.00 | > 100 | 38.9 | > 50.1 | 0.11 | – | – | – | – | – |
| CCCCCNC(=O)c1c(O)c2ccccc2[nH]c1=O [ST/243992] | 2.09 | – | > 100 | > 50.1 | > 50.1 | 0.00 | – | – | – | 1.68 | – |
| OC(Cn1ccnc1)(c1ccc(Cl)cc1Cl)C1CCCCC1 (stereo not drawn) [CJL/479/3] | 5.75 | – | 45.7 | – | – | – | – | – | – | 0.90 | – |
| O=C(O)c1ccccc1Sc1ncnc2scc(-c3ccccc3)c12 [ST/837236] | 9.77 | – | > 100 | – | > 50.1 | – | 1.01 | 40.7 | 0.09 | – | – |
| NC(=O)c1ccsc1NC(=O)c1ccc([N+](=O)[O-])s1 [ST/918837] | 0.331 | – | > 100 | – | 26.9 | – | 2.48 | 2.04 | 1.12 | – | – |
| NC(=O)c1ccsc1NC(=O)c1ccc([N+](=O)[O-])s1 [compound 3] | – | – | – | – | – | – | – | – | – | – | 2 |
| COc1ccc(CN2CCN(S(=O)(=O)c3ccc(OC(F)(F)F)cc3)CC2)cc1 [SC/122159] | 0.275 | – | > 100 | 35.5 | > 50.1 | 0.15 | – | – | – | 2.56 | – |
| COc1ccc(N(Cc2ccc(-c3ccccc3)o2)S(=O)(=O)c2ccccn2)cc1 [AD102638-200A3B22] | 5.89 | – | 61.7 | – | – | – | – | – | – | 1.02 | – |
| Clc1cccc(Nc2nc(-c3ccncc3)cs2)c1 [ST/755059] | 6.76 | – | 32.4 | – | – | – | – | – | – | 0.68 | – |
| O=C(O)C(F)(F)F.O=S(=O)(c1ccc2c(c1)CCN(Cc1ccc(F)cc1)CC2)n1cccc1 [CS100462-069A11B16] | 0.0229 | 3.64 | > 100 | 3.31 | 31.6 | 0.98 | – | – | – | – | – |
| O=C(Nc1ccc2ncsc2c1)c1ccc(Br)s1 [ST/1280764] | 6.92 | – | > 100 | – | – | – | – | – | – | 1.16 | – |
| O=C(O)C(F)(F)F.O=S(=O)(c1ccc2c(c1)CCN(Cc1cccnc1)CC2)n1ccc2c(F)cccc21 [CS100462-069A14B4] | 0.447 | 2.07 | 52.5 | 2 | 33.9 | 1.23 | – | – | – | – | – |
| CC1(C)CCC(=Cc2ccc(Cl)cc2)CC1(O)Cn1ccnc1 (stereo not drawn) [ST/1098001] | 5.5 | – | 46.8 | – | – | – | – | – | – | 0.93 | – |
